What was measured:
Type in all cases: biochemical
Gelatinase = assay: MMP inhibition by particle concentration fluorescence technique (gelatinase); settings: pH 7.5; 15 min enzyme preincubation; substrate 1-3 h at room temperature; read-out: MMP Inhibition Constants, Gelatinase Ki
Method in brief: (§1)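 Compound serially diluted two-fold in 50 mM Tris-HCl pH 7.5, 150 mM NaCl, preincubated 15 min with activated enzyme at room temperature. Fluorescein/biotin-tagged substrate then added for 1-3 hours in the dark. Intact substrate captured on avidin-coated particles; fluorescence signal indicates inhibition.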

Collagenase = target: T1, Collagenase (Homo sapiens, UniProt P03956); assay: MMP inhibition by particle concentration fluorescence technique (collagenase); settings: pH 7.5; 15 min enzyme preincubation; substrate 1-3 h at room temperature; read-out: MMP Inhibition Constants, Collagenase Ki
T1 sequence (P03956 100-469): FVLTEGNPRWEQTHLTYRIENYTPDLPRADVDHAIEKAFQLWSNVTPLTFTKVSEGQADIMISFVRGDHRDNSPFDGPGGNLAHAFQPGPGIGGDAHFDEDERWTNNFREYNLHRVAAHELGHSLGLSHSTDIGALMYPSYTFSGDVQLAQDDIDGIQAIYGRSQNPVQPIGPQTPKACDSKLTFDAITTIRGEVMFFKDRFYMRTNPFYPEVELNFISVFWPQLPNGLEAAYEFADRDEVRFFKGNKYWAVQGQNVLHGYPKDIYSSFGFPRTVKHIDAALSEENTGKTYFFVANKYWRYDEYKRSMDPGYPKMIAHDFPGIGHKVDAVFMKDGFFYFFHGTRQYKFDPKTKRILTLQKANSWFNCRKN
Method in brief: as §1

Stromelysin = Stromelysin (Homo sapiens, UniProt P08254); assay: MMP inhibition by particle concentration fluorescence technique (stromelysin); settings: pH 7.5; 15 min enzyme preincubation; substrate 1-3 h at room temperature; read-out: MMP Inhibition Constants, Stromelysin Ki
Chain of Stromelysin (P08254 100-477): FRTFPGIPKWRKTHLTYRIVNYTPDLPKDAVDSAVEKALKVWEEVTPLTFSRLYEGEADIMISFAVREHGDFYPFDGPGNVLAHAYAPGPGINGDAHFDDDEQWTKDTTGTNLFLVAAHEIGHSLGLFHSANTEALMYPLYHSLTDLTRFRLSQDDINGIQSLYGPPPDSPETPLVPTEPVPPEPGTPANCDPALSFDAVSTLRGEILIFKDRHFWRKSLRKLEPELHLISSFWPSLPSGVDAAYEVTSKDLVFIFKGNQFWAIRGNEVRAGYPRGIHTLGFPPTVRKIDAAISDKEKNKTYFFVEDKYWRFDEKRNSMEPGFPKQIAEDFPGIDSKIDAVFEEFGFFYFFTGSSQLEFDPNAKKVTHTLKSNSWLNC
Method in brief: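 Fluorescein- and biotin-labelled substrate captured on avidin particles after reaction; intact, uncleaved substrate retains fluorescence, so signal rises with inhibition. Activated enzyme incubated with two-fold serial compound dilutions 15 minutes at room temperature.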

Ki (Gelatinase) | Ki (Collagenase) | Ki (Stromelysin) | SMILES
1.2 nM | 13.4 nM | 16 nM | O=C(NCC[C@@H](C(=O)NO)[C@]1(CCCO)CCN(CCc2ccccc2)C1=O)c1ccc(F)c(F)c1 (relative stereo) [Example 94, α-[2-[(3,4-Difluorobenzoyl)amino]ethyl]-N-hydroxy-3-(3-hydroxypropyl)-2-oxo-1-(2-phenylethyl)-3-pyrrolidineacetamide]
310 nM | 55000 nM | 369 nM | CCCOc1ccc2c(c1)C(=O)N(CCC(C(=O)NO)C1(CC(C)C)CCN(CCc3ccccc3)C1=O)C2=O (stereo not drawn) [Example 62, N-Hydroxy-3-(2-methylpropyl)-2-oxo-1-(2-phenylethyl)-α-[2-(5-propyloxy-1,3-dihydro-1,3-dioxo-2H-isoindol-2-yl)ethyl]-3-pyrrolidineacetamide]
227 nM | 510 nM | 1050 nM | CC(C)C[C@@]1([C@@H](CCN2C(=O)c3ccc(C(F)(F)F)cc3C2=O)C(=O)NO)CCN(CCc2ccccc2)C1=O (relative stereo) [Example 65, N-Hydroxy-3-(2-methylpropyl)-2-oxo-1-(2-phenylethyl)-α-[2-(5-trifluoromethyl-1,3-dihydro-1,3-dioxo-2H-isoindol-2-yl)ethyl]-3-pyrrolidineacetamide]
340 nM | 925 nM | 2300 nM | CC(C)C[C@@]1(CC(=O)NO)CCN([C@@H](Cc2ccccc2)C(=O)N2C[C@@H](C)N[C@@H](C)C2)C1=O (relative stereo) [Example 56, [1(1S)-[1[R*(R*)],3α,5α]]-1-[2-(3,5-Dimethyl-1-piperazinyl)-2-oxo-1-(phenylmethyl)ethyl]-N-hydroxy-3-(2-methylpropyl)-2-oxo-3-pyrrolidineacetamide]
